Laboratory results published in PMC9653409, “Generative deep learning enables the discovery of a potent and selective RIPK1 inhibitor” (Nature Communications, 2022).

Tests used:
Test in all cases: Kinase inhibitory activity profiling of RI-962@10 µM (406 kinases, Eurofins)
Assay type in all cases: biochemical
[1] = target: panel of human kinases (kinase named in endpoint) (Homo sapiens, UniProt Q9Y2K2); details: 10 µM; read-out: Activity (%), SIK3(h)
Procedure, shortened: (§1)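 Radiometric filter-binding kinase assays: enzyme preincubated 15 min with compound in 8 mM MOPS pH 7.0, 0.2 mM EDTA, 250 μM peptide substrate, 10 mM magnesium acetate, 10 μM [γ-33P]-ATP. Reaction started with Mg/ATP, run 40 min at room temperature, stopped with phosphoric acid; 33P incorporation read by scintillation counting. Other kinases by similar protocols.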

[2] = target: panel of human kinases (kinase named in endpoint) (Homo sapiens, UniProt Q9NYV4); details: 10 µM; read-out: Activity (%), CDK12/cyclinK(h)
Procedure, shortened: as §1

[3] = target: panel of human kinases (kinase named in endpoint) (Homo sapiens, UniProt P41240); details: 10 µM; read-out: Activity (%), CSK(h)
Procedure, shortened: as §1

[4] = target: panel of human kinases (kinase named in endpoint) (Homo sapiens, UniProt P17948); details: 10 µM; read-out: Activity (%), Flt1(h)
Procedure, shortened: as §1

[5] = target: panel of human kinases (kinase named in endpoint) (Homo sapiens, UniProt Q13535); details: 10 µM; read-out: Activity (%), ATR/ATRIP(h)
Procedure, shortened: as §1

[6] = target: panel of human kinases (kinase named in endpoint) (Homo sapiens, UniProt Q12866); details: 10 µM; read-out: Activity (%), Mer(h)
Procedure, shortened: as §1

[7] = target: panel of human kinases (kinase named in endpoint) (Homo sapiens, UniProt P36897); details: 10 µM; read-out: Activity (%), TGFBR1(h)
Procedure, shortened: as §1

[8] = target: panel of human kinases (kinase named in endpoint) (Homo sapiens, UniProt Q99759); details: 10 µM; read-out: Activity (%), MEKK3(h)
Procedure, shortened: as §1

[9] = target: panel of human kinases (kinase named in endpoint) (Homo sapiens, UniProt O00311); details: 10 µM; read-out: Activity (%), Cdc7/cyclinB1(h)
Procedure, shortened: as §1

[10] = target: panel of human kinases (kinase named in endpoint) (Homo sapiens, UniProt P00533); details: 10 µM; read-out: Activity (%), EGFR(h)
Procedure, shortened: as §1

[11] = target: panel of human kinases (kinase named in endpoint) (Homo sapiens, UniProt P53671); details: 10 µM; read-out: Activity (%), LIMK2(h)
Procedure, shortened: as §1

[12] = target: panel of human kinases (kinase named in endpoint) (Homo sapiens, UniProt Q04759); details: 10 µM; read-out: Activity (%), PKCθ(h)
Procedure, shortened: as §1

[13] = target: panel of human kinases (kinase named in endpoint) (Homo sapiens, UniProt Q02750); details: 10 µM; read-out: Activity (%), MEK1(h)
Procedure, shortened: as §1

[14] = target: panel of human kinases (kinase named in endpoint) (Homo sapiens, UniProt Q9HAZ1); details: 10 µM; read-out: Activity (%), CLK4(h)
Procedure, shortened: as §1

[15] = target: panel of human kinases (kinase named in endpoint) (Homo sapiens, UniProt P43405); details: 10 µM; read-out: Activity (%), Syk(h)
Procedure, shortened: as §1

[16] = target: panel of human kinases (kinase named in endpoint) (Homo sapiens, UniProt P45983); details: 10 µM; read-out: Activity (%), JNK1α1(h)
Procedure, shortened: as §1

[17] = target: panel of human kinases (kinase named in endpoint) (Homo sapiens, UniProt P30530); details: 10 µM; read-out: Activity (%), Axl(h)
Procedure, shortened: as §1

[18] = target: panel of human kinases (kinase named in endpoint) (Homo sapiens, UniProt Q13873); details: 10 µM; read-out: Activity (%), BMPR2(h)
Procedure, shortened: as §1

[19] = target: panel of human kinases (kinase named in endpoint) (Homo sapiens, UniProt P10721, D816H); details: 10 µM; read-out: Activity (%), cKit(D816H)(h)
Procedure, shortened: as §1

[20] = target: panel of human kinases (kinase named in endpoint) (Homo sapiens, UniProt Q86UE8); details: 10 µM; read-out: Activity (%), TLK2(h)
Procedure, shortened: as §1

[21] = target: panel of human kinases (kinase named in endpoint) (Homo sapiens, UniProt Q9NQU5); details: 10 µM; read-out: Activity (%), PAK6(h)
Procedure, shortened: as §1

[22] = target: panel of human kinases (kinase named in endpoint) (Homo sapiens, UniProt P54762); details: 10 µM; read-out: Activity (%), EphB1(h)
Procedure, shortened: as §1

[23] = target: panel of human kinases (kinase named in endpoint) (Homo sapiens, UniProt Q14004); details: read-out: Activity (%), CDK13/cyclinK(h)
Procedure, shortened: as §1

[24] = target: panel of human kinases (kinase named in endpoint) (Homo sapiens, UniProt Q13976); details: 10 µM; read-out: Activity (%), PKG1α(h)
Procedure, shortened: as §1

[25] = target: panel of human kinases (kinase named in endpoint) (Homo sapiens, UniProt Q9Y6E0); details: 10 µM; read-out: Activity (%), MST3(h)
Procedure, shortened: as §1

[26] = target: panel of human kinases (kinase named in endpoint) (Homo sapiens, UniProt Q5S007); details: 10 µM; read-out: Activity (%), LRRK2(h)
Procedure, shortened: as §1

Sequence of panel of human kinases (kinase named in endpoint) (Homo sapiens, UniProt P17948) (P17948 27-1338): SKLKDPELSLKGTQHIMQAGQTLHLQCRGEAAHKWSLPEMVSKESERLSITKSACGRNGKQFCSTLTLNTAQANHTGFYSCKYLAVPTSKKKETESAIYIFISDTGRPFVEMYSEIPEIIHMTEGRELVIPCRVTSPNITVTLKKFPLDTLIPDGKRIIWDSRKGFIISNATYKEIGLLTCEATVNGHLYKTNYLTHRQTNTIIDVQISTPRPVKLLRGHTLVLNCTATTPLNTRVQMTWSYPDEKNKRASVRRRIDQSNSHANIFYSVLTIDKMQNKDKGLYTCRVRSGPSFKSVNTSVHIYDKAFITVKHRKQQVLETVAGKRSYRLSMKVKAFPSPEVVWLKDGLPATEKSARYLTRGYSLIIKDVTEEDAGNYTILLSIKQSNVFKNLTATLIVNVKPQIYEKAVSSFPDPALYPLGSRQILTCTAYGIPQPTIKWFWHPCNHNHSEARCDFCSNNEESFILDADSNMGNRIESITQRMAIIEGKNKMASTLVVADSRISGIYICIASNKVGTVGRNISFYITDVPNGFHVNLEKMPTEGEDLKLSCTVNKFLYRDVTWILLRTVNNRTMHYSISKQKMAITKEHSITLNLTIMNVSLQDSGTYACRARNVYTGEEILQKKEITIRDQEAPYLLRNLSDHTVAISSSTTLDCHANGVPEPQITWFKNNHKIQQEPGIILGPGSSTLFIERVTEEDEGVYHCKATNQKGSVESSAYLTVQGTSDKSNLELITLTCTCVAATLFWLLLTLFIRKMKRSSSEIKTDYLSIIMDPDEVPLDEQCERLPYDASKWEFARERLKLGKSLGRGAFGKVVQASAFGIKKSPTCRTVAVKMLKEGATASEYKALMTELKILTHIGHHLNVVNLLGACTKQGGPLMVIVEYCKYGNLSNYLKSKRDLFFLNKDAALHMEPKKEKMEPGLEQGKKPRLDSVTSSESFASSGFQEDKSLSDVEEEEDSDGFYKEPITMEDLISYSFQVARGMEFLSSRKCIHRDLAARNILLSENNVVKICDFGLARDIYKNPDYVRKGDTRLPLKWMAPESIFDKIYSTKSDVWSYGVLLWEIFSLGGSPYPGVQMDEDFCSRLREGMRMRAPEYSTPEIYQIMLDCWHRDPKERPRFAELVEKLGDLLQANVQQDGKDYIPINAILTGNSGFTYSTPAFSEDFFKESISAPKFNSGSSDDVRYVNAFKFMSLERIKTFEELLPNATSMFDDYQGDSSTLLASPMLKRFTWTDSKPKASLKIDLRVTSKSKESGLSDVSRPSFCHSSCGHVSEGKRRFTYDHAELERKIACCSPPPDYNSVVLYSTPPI
Sequence of panel of human kinases (kinase named in endpoint) (Homo sapiens, UniProt P45983) (P45983 whole entry): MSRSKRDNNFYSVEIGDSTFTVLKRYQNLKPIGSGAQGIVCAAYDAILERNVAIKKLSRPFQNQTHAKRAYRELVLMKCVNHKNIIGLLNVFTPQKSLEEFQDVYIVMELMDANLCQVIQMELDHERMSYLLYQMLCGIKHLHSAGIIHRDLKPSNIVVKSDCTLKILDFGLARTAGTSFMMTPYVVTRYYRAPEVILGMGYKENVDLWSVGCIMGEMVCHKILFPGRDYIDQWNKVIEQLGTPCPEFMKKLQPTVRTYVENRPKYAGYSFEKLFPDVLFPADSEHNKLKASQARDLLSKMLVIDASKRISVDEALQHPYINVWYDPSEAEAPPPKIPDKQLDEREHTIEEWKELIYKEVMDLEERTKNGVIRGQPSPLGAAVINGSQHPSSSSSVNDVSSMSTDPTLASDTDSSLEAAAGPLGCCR
Sequence of panel of human kinases (kinase named in endpoint) (Homo sapiens, UniProt Q86UE8) (Q86UE8 whole entry): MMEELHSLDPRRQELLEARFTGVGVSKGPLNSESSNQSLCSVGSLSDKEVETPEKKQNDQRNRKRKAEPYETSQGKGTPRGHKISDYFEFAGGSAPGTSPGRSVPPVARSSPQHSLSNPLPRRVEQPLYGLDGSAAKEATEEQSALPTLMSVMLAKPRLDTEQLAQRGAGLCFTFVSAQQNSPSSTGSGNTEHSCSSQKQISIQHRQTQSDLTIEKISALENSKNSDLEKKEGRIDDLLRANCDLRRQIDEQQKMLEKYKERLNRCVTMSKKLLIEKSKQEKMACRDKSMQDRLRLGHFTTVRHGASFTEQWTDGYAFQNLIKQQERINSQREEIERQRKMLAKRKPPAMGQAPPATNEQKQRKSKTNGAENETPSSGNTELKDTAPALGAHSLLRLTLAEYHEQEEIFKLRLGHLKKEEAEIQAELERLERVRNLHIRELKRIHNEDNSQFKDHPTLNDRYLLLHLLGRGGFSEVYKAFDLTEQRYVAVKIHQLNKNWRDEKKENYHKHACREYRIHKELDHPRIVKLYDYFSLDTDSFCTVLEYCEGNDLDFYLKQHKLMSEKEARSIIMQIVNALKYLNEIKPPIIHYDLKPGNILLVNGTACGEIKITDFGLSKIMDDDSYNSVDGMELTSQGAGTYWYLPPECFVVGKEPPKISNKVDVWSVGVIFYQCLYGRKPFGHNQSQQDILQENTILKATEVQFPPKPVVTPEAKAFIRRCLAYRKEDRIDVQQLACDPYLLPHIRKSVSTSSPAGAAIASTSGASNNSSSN
Sequence of panel of human kinases (kinase named in endpoint) (Homo sapiens, UniProt O00311) (O00311 whole entry): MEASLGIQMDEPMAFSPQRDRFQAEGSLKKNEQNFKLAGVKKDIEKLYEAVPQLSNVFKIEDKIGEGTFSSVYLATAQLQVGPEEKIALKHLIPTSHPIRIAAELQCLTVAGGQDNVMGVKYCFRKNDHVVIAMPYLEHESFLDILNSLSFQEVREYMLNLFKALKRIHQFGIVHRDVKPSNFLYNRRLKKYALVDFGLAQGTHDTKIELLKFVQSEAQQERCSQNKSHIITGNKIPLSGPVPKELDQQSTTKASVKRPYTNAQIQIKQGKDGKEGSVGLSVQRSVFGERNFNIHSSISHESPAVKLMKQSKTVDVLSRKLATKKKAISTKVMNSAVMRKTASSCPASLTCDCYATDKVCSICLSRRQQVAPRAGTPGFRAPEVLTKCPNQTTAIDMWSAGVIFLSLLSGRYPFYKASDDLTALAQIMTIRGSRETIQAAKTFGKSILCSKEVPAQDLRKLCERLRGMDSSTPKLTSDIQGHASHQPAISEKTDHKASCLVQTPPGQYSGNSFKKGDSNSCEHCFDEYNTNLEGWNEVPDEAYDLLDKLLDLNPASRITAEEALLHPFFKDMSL
Sequence of panel of human kinases (kinase named in endpoint) (Homo sapiens, UniProt Q04759) (Q04759 whole entry): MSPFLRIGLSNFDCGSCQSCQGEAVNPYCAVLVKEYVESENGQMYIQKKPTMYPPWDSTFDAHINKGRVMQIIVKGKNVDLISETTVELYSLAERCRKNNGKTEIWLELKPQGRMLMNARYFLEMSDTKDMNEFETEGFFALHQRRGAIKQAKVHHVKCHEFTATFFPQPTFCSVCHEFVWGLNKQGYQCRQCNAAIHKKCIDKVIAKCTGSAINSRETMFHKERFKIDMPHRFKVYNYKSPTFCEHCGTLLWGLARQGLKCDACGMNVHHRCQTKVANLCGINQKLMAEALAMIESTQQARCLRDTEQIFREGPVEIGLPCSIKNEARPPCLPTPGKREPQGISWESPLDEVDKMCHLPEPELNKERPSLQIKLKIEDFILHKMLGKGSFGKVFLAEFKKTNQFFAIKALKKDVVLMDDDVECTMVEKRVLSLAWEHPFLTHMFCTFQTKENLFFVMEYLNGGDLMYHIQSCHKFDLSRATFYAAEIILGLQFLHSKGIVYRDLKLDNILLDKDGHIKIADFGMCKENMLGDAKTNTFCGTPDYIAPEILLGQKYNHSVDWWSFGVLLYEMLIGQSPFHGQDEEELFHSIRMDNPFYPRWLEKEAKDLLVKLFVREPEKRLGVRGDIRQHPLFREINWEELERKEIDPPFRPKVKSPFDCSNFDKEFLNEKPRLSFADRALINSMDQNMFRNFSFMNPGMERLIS
Sequence of panel of human kinases (kinase named in endpoint) (Homo sapiens, UniProt P41240) (P41240 whole entry): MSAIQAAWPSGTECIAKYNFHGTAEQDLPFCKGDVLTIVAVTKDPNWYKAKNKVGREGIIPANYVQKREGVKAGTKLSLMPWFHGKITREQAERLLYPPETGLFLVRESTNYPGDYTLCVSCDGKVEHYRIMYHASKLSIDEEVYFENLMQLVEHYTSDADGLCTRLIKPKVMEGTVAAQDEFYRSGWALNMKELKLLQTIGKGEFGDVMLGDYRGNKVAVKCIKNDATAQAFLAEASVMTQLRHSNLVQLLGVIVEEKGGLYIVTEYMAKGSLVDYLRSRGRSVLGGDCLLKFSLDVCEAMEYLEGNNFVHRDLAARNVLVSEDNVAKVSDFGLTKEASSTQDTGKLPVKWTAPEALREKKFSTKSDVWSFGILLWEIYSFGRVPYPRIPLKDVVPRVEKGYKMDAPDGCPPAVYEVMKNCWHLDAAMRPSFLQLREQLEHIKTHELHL
Sequence of panel of human kinases (kinase named in endpoint) (Homo sapiens, UniProt Q99759) (Q99759 whole entry): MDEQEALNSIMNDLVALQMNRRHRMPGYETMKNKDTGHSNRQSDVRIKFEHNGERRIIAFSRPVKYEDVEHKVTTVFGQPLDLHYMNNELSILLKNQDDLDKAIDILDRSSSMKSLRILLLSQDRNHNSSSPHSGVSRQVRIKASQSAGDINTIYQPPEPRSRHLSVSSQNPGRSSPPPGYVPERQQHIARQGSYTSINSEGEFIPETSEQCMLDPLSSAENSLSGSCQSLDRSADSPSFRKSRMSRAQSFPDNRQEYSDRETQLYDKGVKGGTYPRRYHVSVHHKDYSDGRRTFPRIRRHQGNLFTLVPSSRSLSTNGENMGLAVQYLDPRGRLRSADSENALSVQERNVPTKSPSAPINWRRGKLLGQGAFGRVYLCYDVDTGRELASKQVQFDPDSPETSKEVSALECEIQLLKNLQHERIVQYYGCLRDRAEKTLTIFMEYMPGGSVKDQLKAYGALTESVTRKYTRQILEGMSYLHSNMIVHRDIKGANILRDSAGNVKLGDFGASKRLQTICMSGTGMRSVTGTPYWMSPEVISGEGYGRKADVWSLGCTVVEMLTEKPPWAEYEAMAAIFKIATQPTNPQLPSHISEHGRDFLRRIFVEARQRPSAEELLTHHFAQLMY

For `CC(C)C(=O)Nc1nc2cc(-c3ccc4c(c3)c(C(=O)NC(C)c3ccccc3)cn4C)ccn2n1` (centres unmarked) [RI-962], the activity at 10 µM [1] was 100%, the activity at 10 µM [2] was 117% and the activity at 10 µM [3] was 76%. It also gave an activity at 10 µM [4] of 85%, an activity at 10 µM [5] of 108% and an activity at 10 µM [6] of 91%. For the same molecule, the activity at 10 µM [7] was 98%, the activity at 10 µM [8] was 93% and the activity at 10 µM [9] was 53%. For the same molecule, the activity at 10 µM [10] was 94%, the activity at 10 µM [11] was 101% and the activity at 10 µM [12] was 131%. For the same molecule, the activity at 10 µM [13] was 105%, the activity at 10 µM [14] was 103% and the activity at 10 µM [15] was 55%. For the same molecule, the activity at 10 µM [16] was 99%, the activity at 10 µM [17] was 110% and the activity at 10 µM [18] was 105%. The activity at 10 µM [19] was 142%, the activity at 10 µM [20] was 78% and the activity at 10 µM [21] was 87%. It also gave an activity at 10 µM [22] of 111%, an activity at 10 µM [23] of 100% and an activity at 10 µM [24] of 101%. For the same molecule, the activity at 10 µM [25] was 149% and the activity at 10 µM [26] was 102%.
